Source: publication PMC11435625, “In Vitro Hepatic Clearance Evaluations of Per- and Polyfluoroalkyl Substances (PFAS) across Multiple Structural Categories” (Toxics, 2024)
Read-outs that look alike come from different tables or passages of the source.

Key:
[1] = tested on: pooled primary human hepatocyte suspensions; test: Hepatic clearance assay (substrate depletion, LC-MS); conditions: for In Vitro Clint: Table 3, 0 = no significant clearance
How it was run: (§1)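 Substrate depletion at 1 μM PFAS in pooled cryopreserved human hepatocytes (~0.5 × 10^6 viable cells/mL, 50-donor pool), 37 °C with shaking, sampled 0–240 min in triplicate. Quantified by LC-MS in negative ion mode against matrix-matched calibration; media-only or heat-inactivated cells as nonmetabolic-loss controls.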

[2] = as above; conditions: both, human
How it was run: as §1

[3] = IVIVE: steady-state concentration (Css), generic HTTK model; design: species or system human; conditions: for Css: human steady-state concentration, 1 mg/kg/day exposure rate, loss of parent compound only; for Css (mg/L) / Css (uM): Assuming 1 mg/kg/day dose rate, BW 70 kg; for CLhep: QL 1500000 uL/min; for Fub: fub=fup/(B:P), Fub set to 1 if needed; for CLint: scaled to whole liver: HPGL 110 mill cells/g, Vl 1596 g
How it was run: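 Human Css estimated by IVIVE: plasma protein binding converted to blood fraction unbound via blood-to-plasma partitioning, and experimental Clint scaled with liver scalars to whole liver clearance. AEDs then derived by reverse dosimetry from Css and PFAS in vitro POD, defined as fifth-percentile AC50.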

plasma protein = conditions: cited from earlier work; for fup (fraction unbound in plasma): human plasma
[4] = tested on: pooled primary human hepatocyte suspensions; conditions: both, hepatocytes, 1 μM
Source text: (§2) Markov Chain Monte Carlo was employed in a Bayesian analysis to estimate uncertainty of the hepatic clearance point measures as previously described, but with some modifications [10]. Briefly, after organizing PFAS-level data into a single file, the relationship between the relevant measurement process parameters was described in a graphic model in JAGS language [13] interfaced through R. For hepatic clearance data, the model describes the PFAS-specific mass spectrometric response factor between analyte peak ratio (to internal standard) and chemical concentration. […] The assumed prior for whether the chemical degraded abiotically in vitro followed a Bernoulli distribution with a 5% chance of abiotic degradation. Separate biotic and abiotic components for chemical elimination were estimated, each with a slope following an assumed uniform prior distribution bounded between the zero and the -log (limit of quantitation/Ctest). In scenarios where an external calibration without internal standard was used, the response factor was calculated using the analyte peak alone, introducing additional uncertainty due to the inability to normalize for recovery issues. The model was analyzed jointly by JAGS using five Markov chains. Convergence was identified by requiring the five chains to be consistent, as indicated by the potential scale reduction factor [14] being less than 1.1. The analysis was performed using EPA-developed R package invitroTKstats, available upon request.

[5] = Administered equivalent dose (AED) by reverse dosimetry; design: species or system human; conditions: from Css and AC50 POD by reverse dosimetry
Procedure: IVIVE was performed as previously described to calculate human steady-state concentrations (Css). Briefly, experimental plasma protein binding data presented elsewhere were transformed to fraction unbound in blood using blood-to-plasma partitioning values. Experimental Clint values generated here are used in conjunction with relevant liver scalars to scale up to estimate whole liver clearance. […] Once Css values were established, these were used with the PFAS-specific in vitro POD data to calculate the administered equivalent doses (AEDs) using reverse dosimetry. […] The fifth-percentile AC50 value was used to define the in vitro POD. All relevant inputs, scalars, and calculations are provided in Supplementary Information, as indicated in the results.

[6] = tested on: pooled primary human hepatocyte suspensions; test: Bayesian (MCMC, invitroTKstats) analysis of hepatic clearance data; conditions: for Clint.1.Med: Level-4 Bayesian estimate, posterior median, Clint.1 series (Clint.10 all NA); for metabolic clearance call, experimental and Bayesian analyses in agreement: both analyses agreed
Source text: as §2

[7] = design: method as in PMID 26085347; conditions: simulation; cited from earlier work
[8] = design: method as in PMID 36851038; conditions: dynamic one-compartment model; cited from earlier work
[9] = design: method as in PMID 32648786; conditions: human; cited from earlier work
[10] = pooled human hepatocyte suspension, 1 μM
[11] = unadjusted hepatic intrinsic clearance, pooled primary human hepatocyte suspensions, Table S4, in µL/min/10^6 cells
[12] = CLint value carried into HTTK/IVIVE, in µL/min/10^6 cells
[13] = pooled primary human hepatocyte suspensions, in µL/min/10^6 cells

## O=S(=O)(O)CCC(F)(F)C(F)(F)C(F)(F)C(F)(F)F [4:2 FTS, 4:2 Fluorotelomer sulfonic acid]
[1]; [10]
  In Vitro Clint: 4.28 μL/min/million cells
[1]; [11]
  Unadj Clint: 4.28
[2]; hepatocytes
  hepatocyte CLint at 1 μM: 4.28 µL/min/1e6 cells
[3]
  Css: 19.12 µM
Plasma protein
  fup (fraction unbound in plasma): 0.0050

## O=C(O)C(F)(F)C(F)(F)C(F)(F)OC(F)(C(F)(F)F)C(F)(F)F [PFPE-1, Perfluoro-4-isopropoxybutanoic acid]
[1]; [11]
  Unadj Clint: 5.78
[2]; hepatocytes
  hepatocyte CLint at 1 μM: 5.78 µL/min/1e6 cells

## O=C(O)CCC(F)(C(F)(F)F)C(F)(F)F
[1]; both, human, hepatocytes, 1 μM
  CLint for HTTK: 0
  Unadj Clint: 0.00
  in vitro CLint exp assay: 0
[4]
  Clint.1.Med: 0
[3]
  Css (mg/L): 2.52 mg/L
  Css (uM): 10.43 µM
  CLhep: 0.000 L/h
  Fub: 0.1738
  CLint: 0 µL/min
Plasma protein; plasma
  Mean fu: 0.0956

## O=C(O)C(F)(F)C(F)(F)C(F)(F)C(F)(F)C(F)(F)C(F)(F)C(F)F [8H-PFOA, 8H-Perfluorooctanoic acid]
[1]; [11]
  Unadj Clint: 0.00
[5]
  AED: 0.04 mg/kg/day
[6]
  Clint.1.Med: 0
[3]
  Css: 290.23 µM
Plasma protein
  fup (fraction unbound in plasma): 0.0021

## O=S(=O)(O)C(F)(F)C(F)(F)C(F)(F)C(F)(F)C(F)(F)C(F)(F)C(F)(F)C(F)(F)F [PFOS, Perfluorooctanesulfonic acid]
[1]; unadjusted hepatic intrinsic clearance, pooled primary human hepatocyte suspensions, Table S4, listed as Perfluorooctanesulfonic acid, in µL/min/10^6 cells
  Unadj Clint: 1.38
[5]
  AED: 0.08 mg/kg/day
[3]
  Css: 98.52 µM
Plasma protein
  fup (fraction unbound in plasma): 0.0049
[7]
  time to reach steady state: 6.6 years
[8]
  time to reach steady-state values: 30 years

## NS(=O)(=O)C(F)(F)C(F)(F)C(F)(F)C(F)(F)C(F)(F)C(F)(F)C(F)(F)C(F)(F)F [PFOSA, Perfluorooctanesulfonamide]
[1]; both, human, hepatocytes, 1 μM
  Unadj Clint: 22.84
[2]; hepatocytes
  hepatocyte CLint at 1 μM: > 15 µL/min/1e6 cells
[4]
  Clint.1.Med: 0

## O=C(O)CCC(F)(F)C(F)(F)C(F)(F)C(F)(F)C(F)(F)C(F)(F)F [6:3 FTCA, 6:3 Fluorotelomer carboxylic acid]
[1]; [12]
  CLint for HTTK: 5.05
[1]; Table 2, pooled human hepatocyte suspension, 1 μM, 0-240 min, 0 = slope not significant (p>0.05)
  CLint: 5.05 μL/min/million cells
[1]; [10]
  In Vitro Clint: 5.05 μL/min/million cells
[1]; [13]
  in vitro CLint exp assay: 5.05
[5]
  AED: 0.18 mg/kg/day
[6]
  Clint.1.Med: 0
[3]
  Css (mg/L): 11.76 mg/L
  Css (uM): 30.01 µM
  CLhep: 0.222 L/h
  Fub: 0.004182
  Css: 30.01 µM
  CLint: 886578 µL/min
Plasma protein
  fup (fraction unbound in plasma): 0.0023

## O=S(=O)(O)CCC(F)(F)C(F)(F)C(F)(F)C(F)(F)C(F)(F)C(F)(F)F [6:2 FTS, 6:2 Fluorotelomer sulfonic acid]
[1]; [10]
  In Vitro Clint: 1.4 μL/min/million cells
[1]; [11]
  Unadj Clint: 1.40
[2]; hepatocytes
  hepatocyte CLint at 1 μM: 1.4 µL/min/1e6 cells
[5]
  AED: 0.89 mg/kg/day
[3]
  Css: 12.36 µM
Plasma protein
  fup (fraction unbound in plasma): 0.0143

## O=S(=O)(O)C(F)(F)C(F)(F)C(F)(F)C(F)(F)F [PFBS, Perfluorobutanesulfonic acid]
[1]; [10]
  In Vitro Clint: 4.75 μL/min/million cells
[1]; [11]
  Unadj Clint: 4.75
[2]; hepatocytes
  hepatocyte CLint at 1 μM: 4.75 µL/min/1e6 cells
[5]
  AED: 0.83 mg/kg/day
[9]
  estimated half life: as low as one month
[3]
  Css: 7.51 µM
Plasma protein
  fup (fraction unbound in plasma): 0.0128

## O=C(O)C(F)(F)C(F)(F)C(F)(F)C(F)(F)C(F)(F)C(F)(F)C(F)(F)F [PFOA, Perfluorooctanoic acid]
[1]; unadjusted hepatic intrinsic clearance, pooled primary human hepatocyte suspensions, Table S4, listed as Perfluorooctanoic acid, in µL/min/10^6 cells
  Unadj Clint: 1.49
[5]
  AED: 0.01 mg/kg/day
[3]
  Css: 582.99 µM
Plasma protein
  fup (fraction unbound in plasma): 0.0010
[7]
  time to reach steady state: 3.5 years

## O=C(O)CCC(F)(F)C(F)(F)C(F)(F)C(F)(F)C(F)(F)F [5:3 FTCA, 2H,2H,3H,3H-Perfluorooctanoic acid]
[1]; [10]
  In Vitro Clint: 11.84 μL/min/million cells
[1]; [11]
  Unadj Clint: 11.84
[2]; hepatocytes
  hepatocyte CLint at 1 μM: 11.8 µL/min/1e6 cells
[5]
  AED: 0.99 mg/kg/day
[6]
  metabolic clearance call, experimental and Bayesian analyses in agreement: metabolized
[3]
  Css: 6.18 µM
Plasma protein
  fup (fraction unbound in plasma): 0.0059

## CCNS(=O)(=O)C(F)(F)C(F)(F)C(F)(F)C(F)(F)C(F)(F)C(F)(F)C(F)(F)C(F)(F)F [NEtFOSA, N-Ethylperfluorooctanesulfonamide]
[1]; both, human, hepatocytes, 1 μM
  Unadj Clint: 24.92
[2]; hepatocytes
  hepatocyte CLint at 1 μM: > 15 µL/min/1e6 cells
[4]
  Clint.1.Med: 164

## O=S(=O)(O)CCC(F)(F)C(F)(F)C(F)(F)C(F)(F)C(F)(F)C(F)(F)C(F)(F)C(F)(F)F [8:2 FTS, 8:2 Fluorotelomer sulfonic acid]
[1]; [11]
  Unadj Clint: 1.53
[2]; cryopreserved pooled primary human hepatocyte suspensions
  hepatocyte CLint at 1 μM: 1.53 µL/min/1e6 cells

## O=C(O)CCC(F)(F)C(F)(F)C(F)(F)C(F)(F)C(F)(F)C(F)(F)C(F)(F)F [7:3 FTCA, 3-Perfluoroheptylpropanoic acid]
[1]; [12]
  CLint for HTTK: 13.21
[1]; [10]
  In Vitro Clint: 15.7 μL/min/million cells
[1]; [13]
  in vitro CLint exp assay: 13.21
[1]; [11]
  Unadj Clint: 19.74
[2]; hepatocytes
  hepatocyte CLint at 1 μM: 15.7 µL/min/1e6 cells
[5]
  AED: 0.19 mg/kg/day
[6]
  Clint.1.Med: 15.6
  metabolic clearance call, experimental and Bayesian analyses in agreement: metabolized
[3]
  Css (mg/L): 2.20 mg/L
  Css (uM): 4.99 µM
  CLhep: 1.272 L/h
  Fub: 0.009273
  Css: 4.99 µM
  CLint: 2319148 µL/min
Plasma protein
  fup (fraction unbound in plasma): 0.0051

## O=C(O)C=CC(F)(C(F)(F)F)C(F)(F)F [3-(Perfluoroisopropyl)-2-propenoic acid]
[1]; [12]
  CLint for HTTK: 0
[1]; [13]
  in vitro CLint exp assay: 0
[1]; [11]
  Unadj Clint: 1.23
[4]
  Clint.1.Med: 0
[3]
  Css (mg/L): 2.41 mg/L
  Css (uM): 10.03 µM
  CLhep: 0.000 L/h
  Fub: 0.1824
  CLint: 0 µL/min
Plasma protein; fraction unbound in plasma, input for IVIVE calculations
  Mean fu: 0.1003
